Results on four compounds are retold here after US11185531B2, “Arginine methyltransferase inhibitors and uses thereof” (Epizyme, Inc., priority 2013, dated 2021).

The target of one assay is T1, human PRMT1 (Homo sapiens, UniProt Q99873).
T1 construct: GST-tagged PRMT1; made in house; host or cells: High Five insect cells (baculovirus)
Nature of the assay: PRMT1 Biochemical Assay (3H-SAM Flashplate, peptide substrate). Conditions: 30 min preincubation. From the text:
Peptide representative of human histone H4 residues 36-50 was synthesized with an N-terminal linker-affinity tag motif and a C-terminal amide cap by 21st Century Biochemicals. The peptide was purified by high-performance liquid chromatography (HPLC) to greater than 95% purity and confirmed by liquid chromatography mass spectrometry (LC-MS). The sequence was Biot-Ahx-[…]-amide (SEQ ID NO.: 1).
Full-length human PRMT1 isoform 1 (NM_001536.5) transcript clone was amplified from an HEK 293 cDNA library, incorporating flanking 5′ sequence encoding a FLAG tag ([…]) (SEQ ID NO:2) fused directly to Met 1 of PRMT1. The amplified gene was subcloned into pFastBacI (Life Technologies) modified to encode an N-terminal GST tag and a TEV cleavage sequence
GST-tagged PRMT1 was eluted with 50 mM Tris, 2 mM glutathione, pH 7.8, dialysed in buffer A and concentrated to 1 mg/mL. The purity of recovered protein was 73%. Reference: Wasilko, D. J. and S. E. Lee: “TIPS: titerless infected-cells preservation and scale-up” Bioprocess J., 5 (2006), pp. 29-32.
General Procedure for PRMT1 Enzyme Assays on Peptide Substrates.
The assays were all performed in a buffer consisting of 20 mM Bicine (pH=7.6), 1 mM TCEP, 0.005% BSG, and 0.002% Tween 20, prepared on the day of use. Compounds in 100% DMSO (1 ul) were spotted into a polypropylene 384-well V-bottom plates (Greiner) using a Platemate Plus outfitted with a 384-channel head (Thermo Scientific). DMSO (1 ul) was added to Columns 11, 12, 23, 24, rows A-H for the maximum signal control and 1 ul of SAH, a known product and inhibitor of PRMT1, was added to columns 11, 12, 23, 24, rows I-P for the minimum signal control. A cocktail (40 ul) containing the PRMT1 enzyme was added by Multidrop Combi (Thermo-Fisher). The compounds were allowed to incubate with PRMT1 for 30 min at room temperature, then a cocktail (10 ul) containing SAM and peptide was added to initiate the reaction (final volume=51 ul). The final concentrations of the components were as follows: PRMT1 was 0.5 nM, ^3H-SAM was 200 nM, non-radiolabeled SAM was 1.5 uM, peptide was 20 nM, SAH in the minimum signal control wells was 1 mM, and the DMSO concentration was 2%. The assays were stopped by the addition of non-radiolabeled SAM (10 ul) to a final concentration of 300 uM, which dilutes the ^3H-SAM to a level where its incorporation into the peptide substrate is no longer detectable. 50 ul of the reaction in the 384-well polypropylene plate was then transferred to a 384-well Flashplate and the biotinylated peptides were allowed to bind to the streptavidin surface for at least 1 hour before being washed once with 0.1% Tween20 in a Biotek ELx405 plate washer. The plates were then read in a PerkinElmer TopCount plate reader to measure the quantity of ^3H-labeled peptide bound to the Flashplate surface, measured as disintegrations per minute (dpm) or alternatively, referred to as counts per minute (cpm).
(§1) Where dpm=disintegrations per minute, cmpd=signal in assay well, and min and max are the respective minimum and maximum signal controls.
(§2) Where top and bottom are the normally allowed to float, but may be fixed at 100 or 0 respectively in a 3-parameter fit. The Hill Coefficient normally allowed to float but may also be fixed at 1 in a 3-parameter fit. Y is the % inhibition and X is the compound concentration.

The target of a further assay is T2, human PRMT8 (Homo sapiens, UniProt Q9NR22).
T2 construct: Full-length human PRMT8 (NM_019854.4) isoform 1 transcript clone; GST (N, cleaved yes); made in house; host or cells: E. coli BL21(DE3) Gold
Briefly: PRMT8 Biochemical Assay (3H-SAM Flashplate, peptide substrate). The conditions noted are these: 30 min preincubation.
Excerpt: Peptide representative of human histone H4 residues 31-45 was synthesized with an N-terminal linker-affinity tag motif and a C-terminal amide cap by 21st Century Biochemicals. The peptide was purified by high-performance liquid chromatography (HPLC) to greater than 95% purity and confirmed by liquid chromatography mass spectrometry (LC-MS). The sequence was Biot-Ahx-[…]-amide (SEQ ID NO:8).
The resulting construct encodes an N-terminal GST tag and a thrombin cleavage sequence
GST-tagged PRMT8 was eluted with 50 mM Tris, 2 mM glutathione, pH 7.8. Pooled fractions were cleaved by thrombin (10 U) and dialysed in buffer A. GST was removed by reloading the cleaved protein sample onto glutathione sepharose column and PRMT8 was collected in the flow-through fractions. PRMT8 was purified further by ceramic hydroxyapatite chromatography. The column was washed with 50 mM phosphate buffer, 100 mM NaCl, 5% glycerol, 5 mM 3-mercaptoethanol, pH 7.8 and PRMT8 was eluted by 100 mM phosphate in the same buffer. Protein was concentrated and buffer was exchanged to 50 mM Tris, 300 mM NaCl, 10% glycerol, 5 mM β-mercaptoethanol, pH 7.8 by ultrafiltration. The purity of recovered protein was 89%.
General Procedure for PRMT8 Enzyme Assays on Peptide Substrates.
The assays were all performed in a buffer consisting of 20 mM Bicine (pH=7.6), 1 mM TCEP, 0.005% BSG, and 0.002% Tween 20, prepared on the day of use. Compounds in 100% DMSO (1 ul) were spotted into a polypropylene 384-well V-bottom plates (Greiner) using a Platemate Plus outfitted with a 384-channel head (Thermo Scientific). DMSO (1 ul) was added to Columns 11, 12, 23, 24, rows A-H for the maximum signal control and 1 ul of SAH, a known product and inhibitor of PRMT8, was added to columns 11, 12, 23, 24, rows I-P for the minimum signal control. A cocktail (40 ul) containing the PRMT8 enzyme was added by Multidrop Combi (Thermo-Fisher). The compounds were allowed to incubate with PRMT8 for 30 min at room temperature, then a cocktail (10 ul) containing ^3H-SAM and peptide was added to initiate the reaction (final volume=51 ul). The final concentrations of the components were as follows: PRMT8 was 1.5 nM, ^3H-SAM was 50 nM, non-radiolabeled SAM was 550 nM, peptide was 150 nM, SAH in the minimum signal control wells was 1 mM, and the DMSO concentration was 2%. The assays were stopped by the addition of non-radiolabeled SAM (10 ul) to a final concentration of 400 uM, which dilutes the ^3H-SAM to a level where its incorporation into the peptide substrate is no longer detectable. 50 ul of the reaction in the 384-well polypropylene plate was then transferred to a 384-well Flashplate and the biotinylated peptides were allowed to bind to the streptavidin surface for at least 1 hour before being washed once with 0.1% Tween20 in a Biotek ELx405 plate washer. The plates were then read in a PerkinElmer TopCount plate reader to measure the quantity of ^3H-labeled peptide bound to the Flashplate surface, measured as disintegrations per minute (dpm) or alternatively, referred to as counts per minute (cpm).
as §1, §2

T2 sequence (Q9NR22 whole entry, canonical isoform): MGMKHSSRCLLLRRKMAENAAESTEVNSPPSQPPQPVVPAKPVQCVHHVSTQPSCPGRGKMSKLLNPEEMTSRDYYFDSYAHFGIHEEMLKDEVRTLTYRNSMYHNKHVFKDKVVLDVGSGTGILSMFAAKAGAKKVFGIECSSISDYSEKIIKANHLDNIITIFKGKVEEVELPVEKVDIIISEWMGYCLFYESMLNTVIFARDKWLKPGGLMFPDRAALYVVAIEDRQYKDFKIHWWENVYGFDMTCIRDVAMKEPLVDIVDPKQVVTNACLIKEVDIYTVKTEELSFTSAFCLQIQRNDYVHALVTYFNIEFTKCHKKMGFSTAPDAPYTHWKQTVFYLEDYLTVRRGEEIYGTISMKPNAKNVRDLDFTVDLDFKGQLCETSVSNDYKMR
T1 sequence (Q99873 with tags, fused parts or gaps): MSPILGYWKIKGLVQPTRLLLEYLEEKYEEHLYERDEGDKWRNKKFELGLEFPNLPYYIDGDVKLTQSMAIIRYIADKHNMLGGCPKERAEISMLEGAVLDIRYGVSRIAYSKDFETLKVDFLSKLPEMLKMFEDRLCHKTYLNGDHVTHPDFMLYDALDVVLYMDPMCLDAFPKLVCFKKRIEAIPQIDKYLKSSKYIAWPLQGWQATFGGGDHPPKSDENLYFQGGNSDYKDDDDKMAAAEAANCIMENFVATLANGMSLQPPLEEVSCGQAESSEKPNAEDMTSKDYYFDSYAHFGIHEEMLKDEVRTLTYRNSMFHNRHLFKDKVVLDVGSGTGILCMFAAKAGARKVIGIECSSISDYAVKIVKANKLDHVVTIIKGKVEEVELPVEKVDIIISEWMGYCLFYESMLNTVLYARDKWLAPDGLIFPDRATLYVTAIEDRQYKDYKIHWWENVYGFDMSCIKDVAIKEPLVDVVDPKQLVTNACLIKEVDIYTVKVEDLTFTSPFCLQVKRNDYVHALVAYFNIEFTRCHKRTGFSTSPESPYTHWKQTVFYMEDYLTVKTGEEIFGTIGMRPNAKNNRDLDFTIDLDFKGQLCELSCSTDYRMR

Take `CC1CCC(c2n[nH]cc2CN(C)CCN)CC1` (centres unmarked) [Compound 37, N^1-methyl-N^1-((3-(4-methylcyclohexyl)-1H-pyrazol-4-yl)methyl)ethane-1,2-diamine]: the IC50 on human PRMT1 was under 0.1 µM; at human PRMT8 it was 0.101 to 1 µM.

For `CN(CCN)Cc1c[nH]nc1C1CCC(C)(C)CC1` [Compound 38, N^1-((3-(4,4-dimethylcyclohexyl)-1H-pyrazol-4-yl)methyl)-N^1-methylethane-1,2-diamine], the values for the IC50 against human PRMT1 and against human PRMT8 were under 0.1 µM and 0.101 to 1 µM, respectively.

In the case of `CNCCN(C)Cc1c[nH]nc1C1CCN(C)CC1` [Compound 41], the IC50 against human PRMT1 is under 0.1 µM; at human PRMT8, 3.01 to 10 µM.

For the compound `CNCCN(C)Cc1c[nH]nc1C1CCNCC1` [Compound 42], the IC50 was under 0.1 µM at human PRMT1 and 0.101 to 1 µM against human PRMT8.

By IC50 is commonly meant the concentration that gives 50% inhibition. A low value points to higher potency.
